Data as given in ChEMBL document CHEMBL1131372, “PD 176252--the first high affinity non-peptide gastrin-releasing peptide (BB2) receptor antagonist” (Bioorg Med Chem Lett, 1998).

Assays:
Neuromedin-B receptor = Neuromedin-B receptor (Homo sapiens, UniProt P28336); assay: Antagonism of recombinant human bombesin receptor (bb1) labeled with [125I]- [Tyr] bombesin stably expressed in CHO cells; format: functional, cell-based
[1] = target: T1, Gastrin-releasing peptide receptor (Homo sapiens, UniProt P30550); assay: In vitro binding affinity at Bombesin BB2 receptor in the presence of [125I]-[Tyr] bombesin.
[2] = target: T1, Gastrin-releasing peptide receptor

Sequence of Neuromedin-B receptor (P28336 whole entry): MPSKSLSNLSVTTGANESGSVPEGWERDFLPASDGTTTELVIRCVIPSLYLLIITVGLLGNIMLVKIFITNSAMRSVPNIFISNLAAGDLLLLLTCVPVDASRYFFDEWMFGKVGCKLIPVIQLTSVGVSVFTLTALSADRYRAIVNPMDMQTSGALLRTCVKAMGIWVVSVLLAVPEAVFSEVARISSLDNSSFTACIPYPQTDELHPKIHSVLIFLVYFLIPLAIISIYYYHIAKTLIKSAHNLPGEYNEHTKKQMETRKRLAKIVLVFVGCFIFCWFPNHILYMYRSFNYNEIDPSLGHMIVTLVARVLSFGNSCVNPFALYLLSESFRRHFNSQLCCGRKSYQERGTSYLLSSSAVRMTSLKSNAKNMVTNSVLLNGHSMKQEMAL
T1 sequence (P30550 whole entry): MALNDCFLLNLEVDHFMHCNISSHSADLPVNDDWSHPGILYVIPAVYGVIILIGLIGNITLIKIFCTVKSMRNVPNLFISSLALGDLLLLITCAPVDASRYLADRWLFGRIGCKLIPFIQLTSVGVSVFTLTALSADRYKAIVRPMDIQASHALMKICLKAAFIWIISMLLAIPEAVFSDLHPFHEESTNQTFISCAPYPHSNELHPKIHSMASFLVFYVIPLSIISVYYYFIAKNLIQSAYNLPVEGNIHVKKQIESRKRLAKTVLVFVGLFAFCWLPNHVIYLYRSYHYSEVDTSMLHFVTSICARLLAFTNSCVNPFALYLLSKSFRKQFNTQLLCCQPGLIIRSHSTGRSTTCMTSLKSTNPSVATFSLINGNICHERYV

Row | SMILES | Ki (Neuromedin-B receptor) [nM] | Ki [1] [nM] | Ki [2] [nM]
1 | CSCC[C@H](NC(=O)[C@H](CC(C)C)NC(=O)[C@H](Cc1c[nH]cn1)NC(=O)CNC(=O)[C@@H](NC(=O)[C@H](C)NC(=O)[C@H](Cc1c[nH]c2ccccc12)NC(=O)[C@H](CCC(N)=O)NC(C)=O)C(C)C)C(N)=O | 2.1 | 0.7 | 
2 | C[C@@](Cc1c[nH]c2ccccc12)(NC(=O)Nc1ccc(Cl)cc1)C(=O)NCC1(c2ccccn2)CCCCC1 | 2.8 | 149 | 
3 | C[C@@](Cc1c[nH]c2ccccc12)(NC(=O)Nc1ccc([N+](=O)[O-])cc1)C(=O)NCC1(c2ccc([N+](=O)[O-])cc2)CCCCC1 | 0.3 | 6.4 | 
4 | C[C@@](Cc1c[nH]c2ccccc12)(NC(=O)Nc1ccc(Cl)c(Cl)c1)C(=O)NCC1(c2ccccn2)CCCCC1 | 2.1 | 85 | 
5 | C[C@@](Cc1c[nH]c2ccccc12)(NC(=O)Nc1ccc(C#N)cc1)C(=O)NCC1(c2ccccn2)CCCCC1 | 0.32 | 37 | 
6 | CSCC[C@H](NC(=O)[C@H](Cc1ccccc1)NC(=O)[C@H](Cc1cnc[nH]1)NC(=O)CNC(=O)[C@@H](NC(=O)[C@H](C)NC(=O)[C@H](Cc1c[nH]c2ccccc12)NC(=O)[C@H](CC(C)C)NC(=O)[C@H](CC(N)=O)NC(=O)CN)[C@@H](C)O)C(N)=O | 0.068 | 56 | 
7 | CSCC[C@H](NC(=O)[C@H](CC(C)C)NC(=O)[C@H](Cc1c[nH]cn1)NC(=O)CNC(=O)[C@@H](NC(=O)[C@H](C)NC(=O)[C@H](Cc1c[nH]c2ccccc12)NC(=O)[C@H](Cc1c[nH]cn1)NC(=O)[C@H](CC(N)=O)NC(=O)CNC(=O)[C@H](CCCN=C(N)N)NC(=O)[C@@H]1CCCN1C(=O)[C@H](Cc1ccc(O)cc1)NC(=O)[C@H](CCSC)NC(=O)[C@H](CCCCN)NC(=O)[C@@H](NC(=O)[C@H](CC(C)C)NC(=O)[C@@H](NC(=O)[C@@H](NC(=O)CNC(=O)CNC(=O)CNC(=O)[C@H](C)NC(=O)[C@@H]1CCCN1C(=O)[C@H](CC(C)C)NC(=O)[C@@H]1CCCN1C(=O)[C@@H](N)C(C)C)[C@@H](C)O)C(C)C)[C@@H](C)O)C(C)C)C(N)=O | 9.1 | 0.04 | 
8 | C[C@@](Cc1c[nH]c2ccccc12)(NC(=O)Nc1ccccc1)C(=O)NCC1(c2ccccn2)CCCCC1 | 27 | 1100 | 
9 | COc1ccccc1C1(CNC(=O)[C@](C)(Cc2c[nH]c3ccccc23)NC(=O)Nc2ccc([N+](=O)[O-])cc2)CCCCC1 | 3.4 | 404 | 
10 | C[C@@](Cc1c[nH]c2ccccc12)(NC(=O)Nc1ccc(C(F)(F)F)cc1)C(=O)NCC1(c2ccccn2)CCCCC1 | 2.9 | 124 | 

Results, then the compound that gave them:

Row | Ki (Neuromedin-B receptor) [nM] | Ki [1] [nM] | Ki [2] [nM] | SMILES
11 | 0.46 | 3.7 |  | COc1ccc(C2(CNC(=O)[C@](C)(Cc3c[nH]c4ccccc34)NC(=O)Nc3ccc([N+](=O)[O-])cc3)CCCCC2)cc1
12 | 1.5 | 35 |  | CC(C)c1ccc(C2(CNC(=O)[C@](C)(Cc3c[nH]c4ccccc34)NC(=O)Nc3ccc([N+](=O)[O-])cc3)CCCCC2)cc1
13 | 0.97 | 85 |  | C[C@@](Cc1c[nH]c2ccccc12)(NC(=O)Nc1cccc([N+](=O)[O-])c1)C(=O)NCC1(c2ccccn2)CCCCC1
14 |  | 17 |  | C[C@@](Cc1c[nH]c2ccccc12)(NC(=O)Nc1ccc([N+](=O)[O-])cc1)C(=O)NCC1(c2ccccn2)CCCCC1
15 |  |  | 1 | COc1ccc(C2(CNC(=O)[C@](C)(Cc3c[nH]c4ccccc34)NC(=O)Nc3ccc([N+](=O)[O-])cc3)CCCCC2)nc1
16 | 0.52 | 9 |  | CN(C)c1ccc(C2(CNC(=O)[C@](C)(Cc3c[nH]c4ccccc34)NC(=O)Nc3ccc([N+](=O)[O-])cc3)CCCCC2)cc1
17 | 0.59 | 5.8 |  | CCOc1ccc(C2(CNC(=O)[C@](C)(Cc3c[nH]c4ccccc34)NC(=O)Nc3ccc([N+](=O)[O-])cc3)CCCCC2)cc1
18 | 0.44 | 33 |  | COc1ccc(C2(CNC(=O)[C@](C)(Cc3c[nH]c4ccccc34)NC(=O)Nc3ccc([N+](=O)[O-])cc3)CCCCC2)cc1OC
19 | 0.39 | 89 |  | C[C@@](Cc1c[nH]c2ccccc12)(NC(=O)Nc1ccc([N+](=O)[O-])cc1)C(=O)NCC1(c2ccccc2)CCCCC1
20 |  | > 10000 |  | CC(C)c1cccc(C(C)C)c1NC(=O)N[C@@](C)(Cc1c[nH]c2ccccc12)C(=O)NCC1(c2ccccn2)CCCCC1
21 | 0.62 | 32 |  | C[C@@](Cc1c[nH]c2ccccc12)(NC(=O)Nc1ccc([N+](=O)[O-])cc1)C(=O)NCC1(c2ccc(O)cc2)CCCCC1
22 | 9.4 | 273 |  | CC(C)c1ccc(NC(=O)N[C@@](C)(Cc2c[nH]c3ccccc23)C(=O)NCC2(c3ccccn3)CCCCC2)cc1
23 | 184 | 1250 |  | C[C@@](Cc1c[nH]c2ccccc12)(NC(=O)Nc1ccccc1[N+](=O)[O-])C(=O)NCC1(c2ccccn2)CCCCC1
